Values joined by “and” are separate entries in the source; they are usually repeats but may differ in a detail not shown here. Equal values may be shown once. After the bases stand the sugars from the 5' end (letter, count) and the backbone: PS all phosphorothioate, else s phosphorothioate and o phosphodiester by linkage. Methylation of C is not given here. e = 2'-O-(2-methoxyethyl) (MOE); k = constrained ethyl (cEt); d = 2'-deoxy (DNA)

The target in this data set is SOD1. Particulars: ASO.

As to “TGCCTCTCTTCATCCTT (sugars e3 k2 d7 k2 e3, PS)”, the target mRNA inhibition (HepG2, 3 µM) was 6%.
Where the note is “HepG2, 3 µM”, “ATCTGCTTTTTCATGGA (sugars e3 k2 d7 k2 e3, PS)” gave a target mRNA inhibition of 42%.
Take “AGTGTTTAATGTTTAT (sugars ekddddddddekekee, linkages s1 o1 s8 o3 s2)”: the target mRNA inhibition came to 10% (A431, 0.12 µM); 22% (A431, 0.6 µM); 48% (A431, 3 µM); 77% (A431, 15 µM).
For the setting “HepG2, 5 µM”, “CACTACAGGTACTTTAA (sugars e2 k2 d8 k2 e3, PS)” came in with a target mRNA inhibition of 27%.
As for “CAGGATACATTTCTACAGCT (sugars e5 d10 e5, linkages sososssssssssssosos)”, the target mRNA inhibition runs as follows: (A431, 0.062 µM) 20%; (A431, 0.185 µM) 29%; (A431, 0.556 µM) 49%; (A431, 1.667 µM) 69%; (A431, 5 µM) 76%; (A431, 15 µM) 83%. Besides, the target mRNA inhibition is, setting by setting: (SH-SY5Y, 0.062 µM) 0%; (SH-SY5Y, 0.185 µM) 17%; (SH-SY5Y, 0.556 µM) 39%; (SH-SY5Y, 1.667 µM) 59%; (SH-SY5Y, 5 µM) 85%; (SH-SY5Y, 15 µM) 82%.
On to “CCATTACTTTCCTTCTG (sugars e3 k2 d7 k2 e3, PS)”, for which the target mRNA inhibition (HepG2, 3 µM) turned out to be 37%.
“CCCACCGTGTTTTCTGGATA (sugars e5 d10 e5, PS)”: the target mRNA inhibition (HepG2, 5 µM) was 46% and 40%.
In turn, “TACTTTCTTCATTTCCA (sugars e3 k2 d7 k2 e3, PS)” returned a target mRNA inhibition (HepG2, 3 µM) of 18%.
As to “CGCCATAACTCGCTAGGCCA (sugars e5 d10 e5, PS)”, the target mRNA inhibition (HepG2, 4 µM) is 59%.
Regarding “GTTTAATGTTTATCAG (sugars kekeddddddddekek, linkages s1 o3 s8 o1 s2)”, the target mRNA inhibition was found to be 7% (A431, 0.12 µM); 7% (A431, 0.6 µM); 41% (A431, 3 µM); 66% (A431, 15 µM); 58% (HepG2, 0.222 µM); 78% (HepG2, 0.667 µM). Also, the target mRNA inhibition reads like this: (HepG2, 2 µM) 86%; (HepG2, 6 µM) 94%.
Sequence “TGTTTATTGGGCGATCC (sugars e3 k2 d7 k2 e3, PS)” had a target mRNA inhibition (HepG2, 3 µM) of 21%.
On to “AACATGCCTCTCTTCAT (sugars e3 k2 d7 k2 e3, PS)”, for which, for the setting “HepG2, 3 µM”, the target mRNA inhibition worked out at 13%.
On the same count and under the same terms, in the case of “CAGGGTTTTTATTCACA (sugars e3 k2 d7 k2 e3, PS)” it was 17%.
Same read-out and setting: in the case of “TGACAAGTTTAATACCC (sugars e3 k2 d7 k2 e3, PS)” it was 27%.
For the sequence “GCGCCTCGCCCACTCTGGCC (sugars e5 d10 e5, PS)”, the target mRNA inhibition (HepG2, 4 µM) is 33%.
Consider “CAATTACACCACAAGCC (sugars e2 k2 d8 k2 e3, PS)”, for which the target mRNA inhibition (HepG2, 4 µM) amounted to 58%.
In turn, “CCGTCGCCCTTCAGCACGCA (sugars e5 d10 e5, linkages s1 o4 s10 o2 s2)” gave a target mRNA inhibition (A431, 0.062 µM) of 12%; a target mRNA inhibition (A431, 0.185 µM) of 13%; a target mRNA inhibition (A431, 0.556 µM) of 14%; a target mRNA inhibition (A431, 1.667 µM) of 4%; a target mRNA inhibition (A431, 5 µM) of 18%; a target mRNA inhibition (A431, 15 µM) of 7%. Besides, the target mRNA inhibition runs as follows: (SH-SY5Y, 0.062 µM) 16%; (SH-SY5Y, 0.185 µM) 5%; (SH-SY5Y, 0.556 µM) 19%; (SH-SY5Y, 1.667 µM) 36%; (SH-SY5Y, 5 µM) 68%; (SH-SY5Y, 15 µM) 80%.
For the sequence “CTACAGCTAGCAGGATA (sugars e3 k2 d7 k2 e3, PS)”, the target mRNA inhibition is 44% (HepG2, 0.1875 µM); 62% (HepG2, 0.75 µM); 55% and 80% (HepG2, 3 µM); 86% (HepG2, 12 µM).
In turn, “TGTGATTTAAGTCTGGCAAA (sugars e5 d10 e5, PS)” gave a target mRNA inhibition (HepG2, 5 µM) of 34%.
Same read-out and setting: in the case of “TGATCATAAATCAGTTT (sugars e2 k2 d8 k2 e3, PS)” it was 49%.
Turning to “CCATACAGGGTTTTTAT (sugars e3 k2 d7 k2 e3, PS)”, for the setting “HepG2, 3 µM”, the target mRNA inhibition turned out to be 1%.
Still for that read-out and setting: in the case of “ATCTTCCAAGTGATCAT (sugars e3 k2 d7 k2 e3, PS)” it was 7%; in that of “CTGCTTTTTCATGGACC (sugars e3 k2 d7 k2 e3, PS)”, 65%.
Under “HepG2, 5 µM”, “CCATCTGTGATTTAAGT (sugars e2 k2 d8 k2 e3, PS)” gave a target mRNA inhibition of 46%.
“GCCCACTCTGGCCCCAA (sugars e3 k2 d7 k2 e3, PS)”: the target mRNA inhibition (HepG2, 3 µM) turned out to be 22%.
Take “ATGTTTATCAGGATACA (sugars e3 k1 d8 k1 e4, linkages s1 o2 s9 o2 s2)”: the target mRNA inhibition is 7% (A431, 0.062 µM); 18% (A431, 0.185 µM); 38% (A431, 0.556 µM); 53% (A431, 1.667 µM); 68% (A431, 5 µM); 79% (A431, 15 µM). Also, the target mRNA inhibition reads like this: (SH-SY5Y, 0.062 µM) 4%; (SH-SY5Y, 0.185 µM) 30%; (SH-SY5Y, 0.556 µM) 51%; (SH-SY5Y, 1.667 µM) 68%; (SH-SY5Y, 5 µM) 88%; (SH-SY5Y, 15 µM) 92%.
The sequence “AATACAGGTCATTGAAA (sugars e3 k2 d7 k2 e3, PS)” displayed a target mRNA inhibition (HepG2, 3 µM) of 6%.
For the sequence “GATCCCAATTACACCAC (sugars e2 k2 d9 k2 e2, PS)”, the target mRNA inhibition (HepG2, 4 µM) is 58%.
In the case of “AAAGTCACACAATTACACTT (sugars e5 d10 e5, PS)”, the target mRNA inhibition (HepG2, 5 µM) amounted to 15%.
Regarding “ATTTCTACAGCTAGCAG (sugars e2 k2 d9 k2 e2, PS)”, the target mRNA inhibition turned out to be 10% (HepG2, 0.1875 µM); 47% (HepG2, 0.75 µM); 77% (HepG2, 3 µM); 75% (HepG2, 4 µM); 91% (HepG2, 12 µM).
Under “HepG2, 5 µM”, “TCTTCCAAGTGATCATA (sugars e2 k2 d9 k2 e2, PS)” returned a target mRNA inhibition of 43%.
On the same count and under the same terms, in the case of “ACAAGTTTAATACCCAT (sugars e2 k2 d9 k2 e2, PS)” it was 61%.
Turning to “TCTACAGCTAGCAGGAT (sugars e3 k2 d7 k2 e3, PS)”, the target mRNA inhibition (HepG2, 3 µM) was found to be 51%.
Consider “CTGCACTGGTACAGCCTGCT (sugars e5 d10 e5, PS)”, for which, where the note is “HepG2, 5 µM”, the target mRNA inhibition is 38% and 29%.
Under “HepG2, 5 µM”, “TCTTTTAATAGCCTCAT (sugars e2 k2 d8 k2 e3, PS)” came in with a target mRNA inhibition of 52%.
Under “HepG2, 3 µM”, “TCATCCTTTGGCCCACC (sugars e3 k2 d7 k2 e3, PS)” came in with a target mRNA inhibition of 27%.
Still for that read-out and setting: the figure for “TAAGTCTGGCAAAATAC (sugars e3 k2 d7 k2 e3, PS)” is 4%.
In turn, “CTCTTCATCCTTTGGCC (sugars e3 k2 d7 k2 e3, PS)” gave a target mRNA inhibition (HepG2, 3 µM) of 26%.
On to “ATACATTTCTACAGCTA (sugars e3 k2 d7 k2 e3, linkages s1 o2 s9 o2 s2)”, for which the target mRNA inhibition by setting is: (A431, 0.12 µM) 4%; (A431, 0.6 µM) 13%; (A431, 3 µM) 26%; (A431, 15 µM) 37%.
The sequence “AGGCTTGAATGACAAAGAAA (sugars e5 d10 e5, PS)” showed a target mRNA inhibition (HepG2, 5 µM) of 27%.
As for “AATTACACCACAAGCCA (sugars e2 k2 d8 k2 e3, PS)”, the target mRNA inhibition (HepG2, 4 µM) amounted to 62%.
